Assay results from patent US10543183B2, “Treatment and diagnosis of melanoma” (The Rockefeller University, priority 2012, dated 2020).

Columns and labels:
[1] = test system: ApoE expression in human melanoma cells; test: ApoE mRNA expression by qRT-PCR in melanoma cells; type: cell-based; settings: MeWo cells; 500 nM, 1 μM, or 2 μM for 48 hours
Description: Total RNA was extracted from various cell lines using the miRvana kit (AM1560, Applied Biosystems, Austin, Tex.). The expression levels of mature miRNAs were quantified using the Taqman miRNA expression assay (4427975-0002228, Applied Biosystems). RNU44 was used as an endogenous control for normalization. For mRNA expression analyses, 600 ng of total RNA was reverse transcribed using the cDNA First-Strand Synthesis Kit (18080-051, Invitrogen), and roughly 200 ng of the resulting cDNA was then mixed with SYBR green PCR Master Mix (4309155, Applied Biosystems) and the appropriate primers. Each reaction was performed in quadruplicate, and mRNA expression was quantified by performing real-time PCR amplification using an ABI Prism 7900HT Real-Time PCR System (Applied Biosystems). GAPDH was used as an endogenous control for normalization. The following primers were used: […]
RNA was extracted from whole cell lysates using the Total RNA Purification Kit (17200, Norgen, Thorold, Canada). 600 ng of total RNA was then reverse transcribed into cDNA using the cDNA First-Strand Synthesis Kit (18080-051, Invitrogen), and quantitative real-time PCR amplification was performed as previously described (Pencheva et al., 2012) using an ABI Prism 7900HT Real-Time PCR System (Applied Biosystems, Austin, Tex.). Each PCR reaction was carried out in quadruplicates. Gene expression was normalized to GAPDH, which was used as an endogenous control.
For every sample, 600 ng of RNA was reverse transcribed into cDNA using the cDNA First-Strand Synthesis kit (Invitrogen). Approximately 200 ng of cDNA was mixed with SYBR® green PCR Master Mix and the corresponding forward and reverse primers specific for detection of human ApoE. Each reaction was carried out in quadruplicates, and ApoE mRNA expression levels were measured by quantitative real-time PCR amplification using an ABI Prism 7900HT Real-Time PCR System (Applied Biosystems). The relative ApoE expression was determined using the ΔΔCt method. GAPDH was used as an endogenous control for normalization purposes.

[2] = test system: endothelial cells (HUVEC) recruited by human melanoma cells; test: trans-well endothelial recruitment assay; type: cell-based; settings: MeWo, HT-144, SK-Mel-2, SK-Mel-334.2; 1 μM for 72 hours
Description: 5×10^4 cancer cells were seeded into 24-well plates approximately 24 hours prior to the start of the assay. HUVEC's were grown to 80% confluency and serum starved in EGM-2 media supplemented with 0.2% FBS for 16 hours. HUVEC's were then pulsed with Cell Tracker Red CMTPX dye (C34552, Invitrogen) for 45 minutes. Meanwhile, cancer cells were washed with PBS, 0.5 mL of 0.2% FBS EGM-2 media was added to each well, and a 3.0 μm HTS Fluoroblock insert (351151, BD Falcon, San Jose, Calif.) was placed into each well. 1×10^5 HUVEC's, resuspended in 0.5 mL of starvation media, were seeded into each trans-well insert, and the recruitment assay was allowed to proceed for 16-18 hours at 37° C. For neutralization antibody and/or recombinant protein experiments, antibody/protein was then added to each well at the appropriate concentration as indicated in the figures: 40 μg/mL anti-ApoE 1D7, 40 μg/mL anti-IgG, 100 μM rhApoE3, and 100 μM BSA. Upon completion of the assay, the inserts were processed and analyzed as described for the matrigel invasion assay above (See Matrigel Invasion Assay).
The endothelial recruitment assay was carried out as previously described (Pencheva et al., 2012; Png et al., 2012). Melanoma cells were treated with DMSO, GW3965, T0901317, or Bexarotene at 1 μM for 56 hours, after which 5×10^4 cells were seeded in a 24-well plate in the presence of each drug and allowed to attach for 16 hours prior to starting the assay. HUVEC cells were serum-starved overnight in EGM-2 media containing 0.2% FBS. The following day, 1×10^5 HUVEC cells were seeded into a 3.0 μm HTS Fluoroblock trans-well migration insert (351151, BD Falcon, San Jose, Calif.) fitted into each well containing cancer cells at the bottom. The HUVEC cells were allowed to migrate towards the cancer cells for 20 hours at 37° C., after which the inserts were processed as previously described (Pencheva et al., 2012). For ApoE antibody neutralization experiments, 40 μg/mL 1D7 anti-ApoE blocking antibody (Heart Institute, University of Ottawa, Ottawa, Canada) or 40 μg/mL anti-IgG control antibody (AB-108-C, R&D Systems, Minneapolis, Minn.) was added to each trans-well insert at the start of the assay.
Subsequently, 5×10^4 cancer cells were seeded into 24-well plates in the presence of each drug or DMSO and allowed to attach for 16 hours prior to starting the assay. Human umbilical vein endothelial cells (HUVEC cells) were serum-starved in 0.2% FBS-containing media overnight. The following day, 1×10^5 HUVEC cells were seeded into a 3.0 μm HTS Fluoroblock insert (351151, BD Falcon) fitted into each well containing the cancer cells at the bottom. The HUVEC cells were allowed to migrate towards the cancer cells for 20 hours, after which the inserts were washed in PBS, fixed in 4% PFA, labeled with DAPI, and mounted on slides. The basal side of each insert was imaged using an inverted fluorescence microscope (Zeiss Axiovert 40 CFL) at 5× magnification, and the number of DAPI-positive cells was quantified using ImageJ.

[3] = test system: human melanoma cells (MeWo, MeWo-LM2, HT-144, SK-Mel-2, SK-Mel-334.2); test: trans-well matrigel cell invasion assay, melanoma cells; type: cell-based; settings: MeWo, HT-144, SK-Mel-2, SK-Mel-334.2; 1 μM for 72 hours
Description: Cancer cells were serum-starved in 0.2% FBS DMEM-based media for 12 hours. Trans-well invasion chambers (354480, BD Biosciences, Bedford, Mass.) were pre-equilibrated prior to beginning the assay by adding 0.5 mL of starvation media to the top and bottom chambers. After 30 minutes, the media in the top chamber was removed, and 0.5 mL of media containing 1×10^5 cancer cells was added into each matrigel-coated trans-well insert and incubated at 37° C. for 24 hours. For neutralization antibody and/or recombinant protein experiments, antibody/recombinant protein was added to each well at the start of the assay at the following concentrations as indicated in the figures: 5-40 μg/mL anti-ApoE 1D7 (Heart Institute, University of Ottawa), 5-40 μg/mL anti-IgG (AB-108-C, R&D Systems, Minneapolis, Minn.), 100 μM recombinant human ApoE3 (4696, BioVision, Mountain View, Calif.), and 100 μM BSA (A2153, Sigma-Aldrich). Upon completion of the assay, matrigel-coated inserts were washed with PBS, the cells at the top side of each insert were scraped off, and the inserts were fixed in 4% paraformaldehyde for 15 minutes. The inserts were then cut out and mounted onto slides using VectaShield mounting medium containing DAPI (H-1000, Vector Laboratories, Burlingame, Calif.). The basal side of each insert was imaged using an inverted fluorescence microscope (Zeiss Axiovert 40 CFL) at 5× magnification, taking three representative images for each insert. The number of invaded cells was quantified using ImageJ (NIH).
The cell invasion assay was performed as previously described in detail (Pencheva et al., 2012) using a trans-well matrigel invasion chamber system (354480, BD Biosciences). In brief, various melanoma cells were cultured in the presence of DMSO, GW3965, T0901317, or Bexarotene at 1 μM for 56 hours, after which melanoma cells were switched to starvation media (0.2% FBS) for 16 hours in the presence of each drug. Following starvation, cells were seeded into matrigel-coated trans-well inserts, and the invasion assay was allowed to proceed for 24 hours at 37° C. For ApoE antibody neutralization experiments, 40 μg/mL 1D7 anti-ApoE blocking antibody (Heart Institute, University of Ottawa, Ottawa, Canada) or 40 μg/mL anti-IgG control antibody (AB-108-C, R&D Systems, Minneapolis, Minn.) was added to each trans-well insert at the start of the assay.
The cells were then serum starved for 16 hours in 0.2% FBS media in the presence of each corresponding drug or DMSO. Following serum starvation, the cells were subjected to the trans-well invasion assay using a matrigel invasion chamber system (354480, BD Biosciences). Invasion chambers were pre-equilibrated prior to the assay by adding 0.5 mL of starvation media to the top and bottom wells. Meanwhile, cancer cells were trypsinized and viable cells were counted using trypan blue. Cancer cells were then resuspended at a concentration of 2×10^5 cells/1 mL starvation media, and 0.5 mL of cell suspension, containing 1×10^5 cells, was seeded into each trans-well. The invasion assay was allowed to proceed for 24 hours at 37° C. […] Following fixation, the inserts were washed in PBS, cut out, and mounted onto slides using VectaShield mounting medium containing DAPI nuclear stain (H-1000, Vector Laboratories). The basal side of each insert was imaged using an inverted fluorescence microscope (Zeiss Axiovert 40 CFL) at 5× magnification, and the number of DAPI-positive cells was quantified using ImageJ.

melanoma cells = test: cell proliferation and viability assay; type: cell-based, human; settings: MeWo, HT-144, SK-Mel-334.2; 1 μM, 5 days
Description: To determine the effects of miR-199a or miR-1908 over-expression and combinatorial LNA-induced miRNA inhibition on cell proliferation, 2.5×10^4 cells were seeded in triplicate in 6-well plates, and viable cells were counted after 5 days. […] Viable cells were counted after 8, 24, 48, 72, and 120 hours.
After 5 days, the number of viable and dead cells was counted using the trypan blue dye (72-57-1, Sigma-Aldrich), which selectively labels dead cells.

[4] = test system: B16F10 mouse melanoma cells; test: subcutaneous B16F10 tumor growth in mice; type: in vivo; settings: 50 mg/kg, i.p., daily
Description: First, the cells were treated with 500 μg/mL DTIC for one week. Following this initial DTIC treatment, the remaining (˜10%) viable cells were allowed to recover for one week, after which 750 μg/mL of DTIC was added to the cell media for 5 days. Subsequent to this high-dose treatment, the cells were allowed to recover in the presence of low-dose DTIC (100 μg/mL) for one week. The cells were then continuously cultured in cell media containing 200 μg/mL DTIC for at least one month prior to grafting the cells into mice. DTIC was added to fresh cancer cell media every 3 days. […] DTIC was dissolved in the presence of citric acid (1:1 by weight) in water and administered daily by intraperitoneal injection.

[5] = test system: B16F10 mouse melanoma cells; test: subcutaneous B16F10 tumor growth in mice; type: in vivo; settings: 50 mg/kg, i.p., daily; remark: listed apart in the source

Compound: Fc1ccc(-c2c3cccc(C(F)(F)F)c3nn2Cc2ccc(F)cc2Cl)cc1 [LXR-623 3]
- ApoE expression induction [1]: varied degrees of ApoE expression induction

Compound: C=C(c1ccc(C(=O)O)cc1)c1cc2c(cc1C)C(C)(C)CCC2(C)C [bexarotene, reference compound]
- ability of melanoma cells to recruit endothelial cells [2]: did not significantly affect
- ability of melanoma cells to invade through matrigel [3]: suppressed invasion only in half of the melanoma lines tested
- cell proliferation or cell viability rates (melanoma cells): did not affect

Compound: CN(C)/N=N/c1[nH]cnc1C(N)=O [dacarbazine, reference compound]
- tumor growth by B16F10 DTIC-resistant cells [4]: did not affect
- growth of DTIC-sensitive parental B16F10 line [5]: significantly suppressed
